Reference: US9340559B2, “Proteasome inhibitor delanzomib for use in the treatment of lupus” (Cephalon, Inc., priority 2011, dated 2016)

How the values were obtained:
MRL/lpr mice [1] = assay: Lymphomegaly (enlarged lymph nodes), MRL/lpr mice; assay type: in vivo, mouse; conditions: for lymphomegaly decrease compared to vehicle: iv
Protocol: FIG. 4 depicts lymphomegaly for MRL/lpr mice across treatment groups for the study duration. MRL/lpr mice were treated as outlined in the legend. Lymphomegaly or presence of enlarged lymph nodes were observed weekly and noted.
(§1) Mice are tracked on an individual basis.
(§2) Vehicle alone is provided orally twice weekly (p.o.). Both proteasome inhibitors are suspended in the vehicle solution. […] In addition, urine proteinuria is determined for all animals.
(§3) Vehicle was 3% DMSO/10% Solutol/87% PBS.

NZM mice = assay: Urinalysis: total urine protein (proteinuria), NZM mice (Example 2); assay type: in vivo, mouse
MRL/lpr mice [2] = assay: Spleen plasma cells by flow cytometry, MRL/lpr mice
MRL/lpr mice [3] = assay: Luminex analysis of serum cytokines (IL-12p40/p70, IL-1β, TNFα), MRL/lpr mice; assay type: in vivo, mouse
Protocol: For the processing of serum samples for cytokine analysis, frozen plasma at −80° C. is thawed on ice, vortexed, and centrifuged for 10 minutes to remove debris and aggregates. A total of 25-50 μL of serum is used for Luminex® assays following the manufacturer's instructions. Ten different mouse cytokines are measured using the mouse cytokine 10-plex bead kit (Invitrogen, Carlsbad, Calif., no. LMC0001). Briefly, filter plates (Millipore, Billerica, Mass., no. MAIPSWU10), are pre-wet with 200 μL of wash solution (kit component) and 25 μL of beads are added per well. Serum samples are diluted and a total volume of 50 μL is added per well (ie, 25 μL of sample serum plus 25 μL of assay diluent as provided by the manufacturer). Plates with beads are incubated for 2 hours at room temperature (RT) on an orbital shaker in the dark. At the end of the incubation, plate(s) are washed twice in kit buffer, secondary biotinylated antibody is added at a 1:10 dilution (100 μL) in biotin diluent provided with the kit. Plates are incubated at RT for 1 hour in the dark then washed twice in kit buffer. Strepavidin in assay diluent is added at 100 μL per well, then incubated for 30 minutes at RT in the dark. The plates are washed 3 times then 100 μL of kit wash solution is added and agitated for 2-3 minutes at RT in the dark. Plates are run immediately following this incubation period on a Luminex xMAP 200 unit with data acquisition and analysis software (Invitrogen, San Diego, Calif., no. MAP0200). All bead washing is performed using a vacuum manifold unit (Pall, Ann Arbor, Mich. no. 5017). For all cytokine Luminex assays, values below the limit of detection set by the lowest point along the standard or set by the manufacturer are considered out of range and are not estimated, but assumed the lowest point along the standard curve for that particular assay.
as §1, §2, §3

MRL/lpr mice [4] = assay: Urinalysis: urine leukocytes (leukouria), Uristix, MRL/lpr mice; assay type: in vivo, mouse
Protocol: Urine samples are acid precipitated for total protein recovery and analysis. Samples for which enough urine remained are used for Uristix® leukouria analysis. Briefly, a standard protein solution is prepared from normal mouse sera and is used as a standard for mouse urinary protein assay by turbidity. Standard preparation is as follows: 0, 5, 10, 15, 20, 30, 40, and 50 μL of a 4 mg/mL mouse sera standard protein solution as provided in the kit are added in duplicate into two columns. PBS is added to individual wells to adjust the final volume to 50 μL. For urine sample preparation, urine samples are centrifuged at 9880×g for 3 minutes using a tabletop micro-centrifuge. Urine supernatant (1-50 μL) is added in duplicate. PBS is added to adjust the volume to 50 μL total. For the turbidity assay: 25 μL of 0.1 N HCl is added into blank columns and 250 μL of 3% sulfosalicyclic acid into the test columns. The microplate is incubated for 10 minutes at RT and plates are read using an ELISA reader with single beam at 450 nm. For the Uristix® strip assay, strips are laid out and labeled. Twenty microliters of urine are placed onto each test strip square and incubated for at least 30 seconds before the result is recorded. For all total urine analysis plate-based assays, values below the limit of detection set by the lowest point along the standard or set by the manufacturer are considered out of range and are not estimated, but assumed the lowest point along the standard curve for that particular assay.

SMILES: C[C@@H]1C[C@H]2[C@@H]3CCC4=CC(=O)C=C[C@]4(C)[C@@]3(F)[C@@H](O)C[C@]2(C)[C@@]1(O)C(=O)CO [dexamethasone, Dexamethasone, reference compound]
- AUC lymphomegaly, percent of non enlarged lymph nodes relative to vehicle (MRL/lpr mice [1]; G6: 1.5 mg/kg ip, 3× wk): 22%
- Urine proteinuria AUC, percent change vs vehicle (NZM mice; G5 1.5 mg/kg ip, 3× wk): 27%
- EOS plasma cells, percent change vs vehicle (MRL/lpr mice [2]; G6: 1.5 mg/kg ip, 3× wk): +25%
- Cytokine AUC serum IL-1β, percent change vs vehicle (MRL/lpr mice [3]; G6: 1.5 mg/kg ip, 3× wk): −44%
- Cytokine AUC serum IL-12, percent change vs vehicle (MRL/lpr mice [3]; G6: 1.5 mg/kg ip, 3× wk): −74%
- Cytokine AUC serum TNFα, percent change vs vehicle (MRL/lpr mice [3]; G6: 1.5 mg/kg ip, 3× wk): −87%
- Urine AUC leukocytes, percent change vs vehicle (MRL/lpr mice [4]; G6: 1.5 mg/kg ip, 3× wk): −100%

SMILES: CC(C)C[C@H](NC(=O)[C@@H](NC(=O)c1cccc(-c2ccccc2)n1)[C@@H](C)O)B(O)O [COMPOUND A, [(1R)-1-[[(2S,3R)-3-hydroxy-2-[6-phenyl-pyridine-2-carbonyl)amino]-1-oxobutyl]amino]-3-methylbutylboronic acid]
- AUC lymphomegaly, percent of non enlarged lymph nodes relative to vehicle (MRL/lpr mice [1]; G1: 3 mg/kg iv, 1× wk): 71%
- AUC lymphomegaly, percent of non enlarged lymph nodes relative to vehicle (MRL/lpr mice [1]; G2: 3 mg/kg iv, 2× wk): 34%
- AUC lymphomegaly, percent of non enlarged lymph nodes relative to vehicle (MRL/lpr mice [1]; G3: 10 mg/kg po, 2× wk): 9%
- lymphomegaly decrease compared to vehicle (MRL/lpr mice [1]; first value (G1: 3 mg/kg 1× wk)): 71%
- lymphomegaly decrease compared to vehicle (MRL/lpr mice [1]; second value (G2: 3 mg/kg 2× wk)): 34%
- Urine proteinuria AUC, percent change vs vehicle (NZM mice; G1 3 mg/kg ip, 1× wk): −61%
- Urine proteinuria AUC, percent change vs vehicle (NZM mice; G2 3 mg/kg ip, 2× wk): −72%
- proteinuria reduction compared to vehicle (NZM mice; Group 1: 3 mg/kg ip once per week): 61%
- proteinuria reduction compared to vehicle (NZM mice; Group 2: 3 mg/kg ip twice weekly): 72%
- EOS plasma cells, percent change vs vehicle (MRL/lpr mice [2]; G1: 3 mg/kg iv, 1× wk): −67%
- EOS plasma cells, percent change vs vehicle (MRL/lpr mice [2]; G2: 3 mg/kg iv, 2× wk): −67%
- EOS plasma cells, percent change vs vehicle (MRL/lpr mice [2]; G3: 10 mg/kg po, 2× wk): −67%
- spleen plasma cells decrease vs vehicle (MRL/lpr mice [2]; Groups 1-3 (each)): 67%
- serum IL-1β by EOS (MRL/lpr mice [3]; 3 mg/kg twice weekly, vehicle 16.8 pg/mL): 5.7 pg/mL
- Cytokine AUC serum IL-1β, percent change vs vehicle (MRL/lpr mice [3]; G1: 3 mg/kg iv, 1× wk): −56%
- Cytokine AUC serum IL-12, percent change vs vehicle (MRL/lpr mice [3]; G1: 3 mg/kg iv, 1× wk): −48%
- Cytokine AUC serum TNFα, percent change vs vehicle (MRL/lpr mice [3]; G1: 3 mg/kg iv, 1× wk): −62%
- Cytokine AUC serum IL-1β, percent change vs vehicle (MRL/lpr mice [3]; G2: 3 mg/kg iv, 2× wk): −61%
- Cytokine AUC serum IL-12, percent change vs vehicle (MRL/lpr mice [3]; G2: 3 mg/kg iv, 2× wk): −72%
- Cytokine AUC serum TNFα, percent change vs vehicle (MRL/lpr mice [3]; G2: 3 mg/kg iv, 2× wk): −79%
- Cytokine AUC serum IL-1β, percent change vs vehicle (MRL/lpr mice [3]; G3: 10 mg/kg po, 2× wk): −58%
- Cytokine AUC serum IL-12, percent change vs vehicle (MRL/lpr mice [3]; G3: 10 mg/kg po, 2× wk): −62%
- Cytokine AUC serum TNFα, percent change vs vehicle (MRL/lpr mice [3]; G3: 10 mg/kg po, 2× wk): −71%
- Urine AUC leukocytes, percent change vs vehicle (MRL/lpr mice [4]; G1: 3 mg/kg iv, 1× wk): −96%
- Urine AUC leukocytes, percent change vs vehicle (MRL/lpr mice [4]; G2: 3 mg/kg iv, 2× wk): −94%
- Urine AUC leukocytes, percent change vs vehicle (MRL/lpr mice [4]; G3: 10 mg/kg po, 2× wk): −94%

SMILES: CC(C)C[C@H](NC(=O)[C@H](Cc1ccccc1)NC(=O)c1cnccn1)B(O)O [bortezomib, reference compound]
- AUC lymphomegaly, percent of non enlarged lymph nodes relative to vehicle (MRL/lpr mice [1]; G4: 0.5 mg/kg iv, 1× wk): 13%
- AUC lymphomegaly, percent of non enlarged lymph nodes relative to vehicle (MRL/lpr mice [1]; G5: 0.3 mg/kg iv, 2× wk): 21%
- effect on lymphomegaly (MRL/lpr mice [1]; bortezomib treatment groups): did not significantly reduce lymphomegaly
- Urine proteinuria AUC, percent change vs vehicle (NZM mice; G3 0.3 mg/kg ip, 1× wk): 30%
- Urine proteinuria AUC, percent change vs vehicle (NZM mice; G4 0.3 mg/kg ip, 2× wk): −57%
- EOS plasma cells, percent change vs vehicle (MRL/lpr mice [2]; G4: 0.5 mg/kg iv, 1× wk): −67%
- EOS plasma cells, percent change vs vehicle (MRL/lpr mice [2]; G5: 0.3 mg/kg iv, 2× wk): −33%
- spleen plasma cells decrease vs vehicle (MRL/lpr mice [2]; Group 4): 66%
- spleen plasma cells decrease vs vehicle (MRL/lpr mice [2]; Group 5): 33%
- Cytokine AUC serum IL-1β, percent change vs vehicle (MRL/lpr mice [3]; G4: 0.5 mg/kg iv, 1× wk): −46%
- Cytokine AUC serum IL-12, percent change vs vehicle (MRL/lpr mice [3]; G4: 0.5 mg/kg iv, 1× wk): −54%
- Cytokine AUC serum TNFα, percent change vs vehicle (MRL/lpr mice [3]; G4: 0.5 mg/kg iv, 1× wk): −64%
- Cytokine AUC serum IL-1β, percent change vs vehicle (MRL/lpr mice [3]; G5: 0.3 mg/kg iv, 2× wk): −51%
- Cytokine AUC serum IL-12, percent change vs vehicle (MRL/lpr mice [3]; G5: 0.3 mg/kg iv, 2× wk): −54%
- Cytokine AUC serum TNFα, percent change vs vehicle (MRL/lpr mice [3]; G5: 0.3 mg/kg iv, 2× wk): −71%
- Urine AUC leukocytes, percent change vs vehicle (MRL/lpr mice [4]; G4: 0.5 mg/kg iv, 1× wk): −78%
- Urine AUC leukocytes, percent change vs vehicle (MRL/lpr mice [4]; G5: 0.3 mg/kg iv, 2× wk): −70%
